Assay results from patent US9958439B2, “Carbohydrate detection” (RICHTER LIFE SCIENCE DEVELOPMENT AB, priority 2012, dated 2018).
Read-outs that look alike come from different tables or passages of the source.

Tests used:
[1] = test system: biofilm of S. enteritidis wt strain 3934 and isogenic mutants ΔbscA, ΔcsgA, ΔcsgD; test: LCO assay for fluorescence confocal analysis of biofilm and biofilm morphology; format: cell-based, Salmonella enteritidis; conditions: for fluorescent signal from the LCO on biofilm versus phase contrast microscopy: 2 μg/ml LCO, fixed and washed cover-slip biofilm
Source text: Fluorescence confocal analysis (left side) and phase contrast analysis (right side) of the same slide are shown side by side.
Glass cover-slips were introduced to the wells of a 6-well plate (according to the set-up shown in FIG. 2A) to provide surfaces for biofilm formation, which at the end of experiment could be easily removed for microscope analysis. To prepare for the biofilm experiment, individual cultures of S. enteritidis wt strain 3934 and isogenic mutants ΔbscA, ΔcsgA, and ΔcsgD were grown in LB medium in flasks overnight. Each culture was diluted 100-fold in fresh LB and cultivated in a shaking incubator (230 rpm) at 37° C. to OD600=0.6. Cultures were diluted to a culture density of 10^5 CFU/ml in LB without salt and dispensed into the cover-slip containing 6 well plates in 8 ml aliquots. After incubating the plates for 48 h at 28° C., glass cover-slips were removed and washed twice with PBS before fixation in 4 ml of 4% formaldehyde for 1 h. […] PBS functioned as the negative control, used to assess the level of auto-fluorescence. Treated slides were then washed twice with PBS and mounted with Vectashield® for fluorescence-based confocal laser scanning microscopy analysis. Specifically, the edge of the biofilm formed at the liquid air interface was visualized using the appropriate fluorescence filters. […] The right side is an overlay of an optical inspection of bacterial presence by phase contrast with LCO fluorescence. Phase contrast is a traditional method for visual confirmation of biofilm attachment on surfaces.

[2] = test system: biofilm (curli, cellulose) of S. enteritidis wt strain 3934 and isogenic mutants; conditions: 2 μg/ml LCO, unprocessed cultures, excitation 300-500 nm, emission 545 nm
Method: A fresh overnight culture of the clinically derived S. enteritidis wt strain 3934 and isogenic mutants (ΔbscA; ΔcsgA and ΔcsgD) was inoculated into fresh LB and cultivated at 37° C. to OD600=0.6. […] 50 μl of each culture was next inoculated in triplicates into separate wells of 96-well plates and incubated at 28° C. for 48 hours.
After removing the biofilm cultures from the incubator, no processing steps were implemented before the detection of LCO signals. […] Emission spectra for curli bound LCOs was collected by reading the emission signal between 500-700 nm when the sample was excited at 405 nm. Emission spectra for cellulose bound LCOs was collected by reading the emission signal between 520-700 nm when the sample was excited at 500 nm.

[3] = test system: biofilm (curli, cellulose) of S. enteritidis 3934 wt and isogenic mutants; test: Real time tracking of biofilm formation with h-FTAA; format: cell-based, Salmonella enteritidis; conditions: 2 μg/ml in culture, curli Ex 405/Em 556 nm, cellulose Ex 500/Em 600 nm, hourly over 48 h
Method: A) comparison of OD600 (. . . ) against GFP signal (_) of a wt biofilm culture over 48 hours; B) correlation of OD600 against GFP signal; […].
The turbidity of a bacterial culture, measured by absorbance at OD600, is used to define culture density. Expression of GFP provides a direct representation of bacterial growth and culture density. S. enteritidis 3934 wt and isogenic mutants ΔbscA, ΔcsgA, and ΔcsgD were transformed with the plasmid P2777 which carries the gfp gene for a more direct representation of culture density through fluorescence detection. […] […]. RFU data of GFP and h-FTAA from the four plates were combined in a single plot to visualize the hourly change in signals over time.

[4] = In short: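 LCO probes at 3 μM mixed with serial two-fold carbohydrate dilutions in water (10–0.039 or 5–0.019 mg/ml), run in triplicate. Excitation scanned 300–500 nm with emission at 545 nm; detection based on reproducible λmax or RFU shift against the no-carbohydrate control, with linear regression of RFU on concentration.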
[5] = for RFU change (Correlation analysis): probe-specific excitation λ, emission 545 nm; for carbohydrate can be detected and/or differentiated by the LCO: conclusion from change in signal magnitude and/or shift in λmax
In short: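 Each LCO probe at 3 μM was added to two-fold serial dilutions of carbohydrate in dH2O (10–0.039 mg/ml for β-1,3-glucan, cellulose, chitin; 5–0.019 mg/ml for the others), run in triplicate. Excitation spectra were scanned 300–500 nm with emission at 545 nm. Detection was a reproducible λmax and/or RFU shift versus negative control, with linear regression of RFU against concentration.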

[6] = remark: listed apart in the source
In short: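 3 μM of each LCO probe was added to serial two-fold carbohydrate dilutions in water (10–0.039 or 5–0.019 mg/ml). Excitation spectra were scanned 300–500 nm with emission at 545 nm, in triplicate. Detection was defined as a reproducible shift in λmax and/or RFU versus negative control, with linear regression of RFU against concentration.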

[7] = for RFU change (Correlation analysis): probe-specific excitation λ, emission 545 nm; for carbohydrate can be detected and/or differentiated by the LCO: conclusion from change in signal magnitude and/or shift in λmax; remark: listed apart in the source
In short: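 LCO probes at 3 μM mixed with serial two-fold dilutions of carbohydrate in dH2O (10–0.039 or 5–0.019 mg/ml, depending on carbohydrate), in triplicate. Excitation scanned 300–500 nm or fixed per probe (λmax or lowest background), emission at 545 nm. Detection taken as reproducible λmax/RFU shift vs no-carbohydrate control; RFU regressed linearly on concentration.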

[8] = for RFU change (Correlation analysis): probe-specific excitation λ, emission 545 nm; for carbohydrate can be detected and/or differentiated by the LCO: conclusion from change in signal magnitude and/or shift in λmax; for Gradient Parameters (gradient of regression line) / Linear relationship / Quality of Gradient: linear regression
In short: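 LCO probes at 3 μM mixed with serial twofold carbohydrate dilutions in dH2O (10–0.039 or 5–0.019 mg/ml, depending on carbohydrate). Excitation scanned 300–500 nm, emission read at 545 nm; detection defined as reproducible shift in λmax and/or RFU relative to negative control, with linear regression of RFU against concentration.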

[9] = remark: listed apart in the source
In short: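 LCO probes (3 μM) were added to serial two-fold dilutions of carbohydrate suspensions in dH2O, with excitation scanned 300–500 nm and emission at 545 nm. Detection was a reproducible λmax and/or RFU change versus no-carbohydrate control. RFU was regressed linearly against concentration at the λmax or the lowest-background excitation.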

[10] = glucose concentration vs RFU, linear regression
[11] = Chitin 10-[…], 3 μM probe, spectral analysis, Excitation 300-500, Emission 545
[12] = cellulose concentration vs RFU, linear regression
[13] = chitin concentration vs RFU, linear regression
[14] = β-1,3-glucan concentration vs RFU, linear regression
[15] = Chondroitin Sulfate A 5-0.019 mg/ml, 3 μM probe, spectral analysis, Excitation 300-500, Emission 545
[16] = Chondroitin Sulfate A concentration vs RFU, linear regression
[17] = Cellulobiose 5-0.019 mg/ml, 3 μM probe, spectral analysis, Excitation 300-500, Emission 545
[18] = amylose concentration vs RFU, linear regression
[19] = cellulobiose concentration vs RFU, linear regression
[20] = Glycogen 5-0.019 mg/ml, 3 μM probe, spectral analysis, Excitation 300-500, Emission 545
[21] = sodium alginate concentration vs RFU, linear regression

hepta Hydrogen Thiophene Acetic Acid [h-HTAA]
fluorescent signal from the LCO on biofilm versus phase contrast microscopy [1]: coincides with visible bacteria aggregates
differentiation of biofilm morphologies of isogenic mutants by excitation spectra [2]: did not differentiate biofilm morphologies

O=C(O)Cc1cc(-c2ccc(-c3ccc(C(=O)O)s3)s2)sc1-c1ccc(-c2sc(-c3ccc(-c4ccc(C(=O)O)s4)s3)cc2CC(=O)O)s1 [h-FTAA, hepta Formic Thiophene Acetic Acid]
fluorescent signal from the LCO on biofilm versus phase contrast microscopy [1]: coincides with visible bacteria aggregates
fluorescent signal with cellulose+ curli− ΔcsgA biofilm ([1]; 2 μg/ml, ΔcsgA, confocal microscopy): gave a fluorescent signal
real time analysis of biofilm formation [3]: enables real time analysis of biofilm formation

O=C([O-])CC[C@H](NC(=O)Cc1cc(-c2cccs2)sc1-c1ccc(-c2sc(-c3cccs3)cc2CC(=O)N[C@@H](CCC(=O)[O-])C(=O)[O-])s1)C(=O)[O-].[Na+].[Na+].[Na+].[Na+] [pHTA-Glu, penta Hydrogen Thiophene Acetic acid Glutamic acid]
RFU change (Correlation analysis) ([4]; Glucose 5-0.019 mg/ml, 3 μM probe, probe-specific excitation λ, emission 545 nm): Decreases
RFU change (Signal deviation with increasing [Carbohydrate]) ([4]; Glucose 5-0.019 mg/ml, 3 μM probe, spectral analysis, Excitation 300-500, Emission 545): Decreases
carbohydrate can be detected and/or differentiated by the LCO ([4]; Glucose, conclusion from change in signal magnitude and/or shift in λmax): can be detected and/or differentiated
Gradient Parameters (gradient of regression line) [4, 10]: −116.0 ± 41.0
Linear relationship [4, 10]: Significant
Quality of Gradient [4, 10]: Negative
Sensitivity ([4]; to glucose): Yes
RFU change (Correlation analysis) ([5]; Cellulose 10-[…], 3 μM probe): Decrease
RFU change (Signal deviation with increasing [Carbohydrate]) ([5]; Cellulose 10-[…], 3 μM probe, spectral analysis, Excitation 300-500, Emission 545): Unclear
RFU change (Correlation analysis) ([5]; Chitin 10-[…], 3 μM probe): Increases
RFU change (Signal deviation with increasing [Carbohydrate]) [5, 11]: Increases
λmax change [5, 11]: Redshift
carbohydrate can be detected and/or differentiated by the LCO ([5]; Chitin): can be detected and/or differentiated
Gradient Parameters (gradient of regression line) [5, 12]: −139.6 ± 344.8
Quality of Gradient [5, 12]: Horizontal
Gradient Parameters (gradient of regression line) [5, 13]: 2824 ± 156.6
Linear relationship [5, 13]: Significant
Quality of Gradient [5, 13]: Positive
Sensitivity ([5]; to cellulose): No
Sensitivity ([5]; to chitin): Yes
Sensitivity ([5]; to β-1,3-glucan): Yes
carbohydrate can be detected and/or differentiated by the LCO ([5]; β-1,3-Glucan): can be detected and/or differentiated
RFU change (Correlation analysis) ([5]; β-1,3-glucan 10-[…], 3 μM probe): Decrease
RFU change (Signal deviation with increasing [Carbohydrate]) ([5]; β-1,3-glucan 10-[…], 3 μM probe, spectral analysis, Excitation 300-500, Emission 545): Decrease
Gradient Parameters (gradient of regression line) [5, 14]: −898.7 ± 117.0
Quality of Gradient [5, 14]: Negative
RFU change (Correlation analysis) ([6]; Chondroitin Sulfate A 5-0.019 mg/ml, 3 μM probe, probe-specific excitation λ, emission 545 nm): Unclear
RFU change (Signal deviation with increasing [Carbohydrate]) [6, 15]: Decreases
λmax change [6, 15]: No change
Gradient Parameters (gradient of regression line) [6, 16]: 125.3 ± 156.5
Quality of Gradient [6, 16]: Horizontal
Sensitivity ([6]; to Chondroitin Sulfate A): No
RFU change (Correlation analysis) ([7]; Amylose 5-0.019 mg/ml, 3 μM probe): Increases
RFU change (Signal deviation with increasing [Carbohydrate]) ([7]; Amylose 5-0.019 mg/ml, 3 μM probe, spectral analysis, Excitation 300-500, Emission 545): Increases
carbohydrate can be detected and/or differentiated by the LCO ([7]; Amylose): can be detected and/or differentiated
RFU change (Correlation analysis) ([7]; Cellulobiose 5-0.019 mg/ml, 3 μM probe): Increases
RFU change (Signal deviation with increasing [Carbohydrate]) [7, 17]: Increases
λmax change [7, 17]: No change
carbohydrate can be detected and/or differentiated by the LCO ([7]; Cellulobiose): can be detected and/or differentiated
Gradient Parameters (gradient of regression line) [7, 18]: 493.6 ± 346.9
Quality of Gradient [7, 18]: Horizontal
Gradient Parameters (gradient of regression line) [7, 19]: 178.6 ± 35.1
Linear relationship [7, 19]: Significant
Quality of Gradient [7, 19]: Positive
Sensitivity ([7]; to amylose): Yes
Sensitivity ([7]; to cellulobiose): Yes
RFU change (Correlation analysis) ([8]; Glycogen 5-0.019 mg/ml, 3 μM probe): Decreases
RFU change (Signal deviation with increasing [Carbohydrate]) [8, 20]: Decreases
λmax change [8, 20]: Redshift
carbohydrate can be detected and/or differentiated by the LCO ([8]; Glycogen): can be detected and/or differentiated
RFU change (Correlation analysis) ([8]; Heparin 5-0.019 mg/ml, 3 μM probe): Unclear
RFU change (Signal deviation with increasing [Carbohydrate]) ([8]; Heparin 5-0.019 mg/ml, 3 μM probe, spectral analysis, Excitation 300-500, Emission 545): Unclear
carbohydrate can be detected and/or differentiated by the LCO ([8]; Heparin): can be detected and/or differentiated
Gradient Parameters (gradient of regression line) ([8]; glycogen concentration vs RFU): −349.2 ± 96.7
Linear relationship ([8]; glycogen concentration vs RFU): Significant
Quality of Gradient ([8]; glycogen concentration vs RFU): Negative
Gradient Parameters (gradient of regression line) ([8]; heparin concentration vs RFU): −12.4 ± 108
Linear relationship ([8]; heparin concentration vs RFU): Not Significant
Quality of Gradient ([8]; heparin concentration vs RFU): Horizontal
Sensitivity ([8]; to glycogen): Yes
Sensitivity ([8]; to heparin): No
RFU change (Correlation analysis) ([9]; Sodium alginate 5-0.019 mg/ml, 3 μM probe, probe-specific excitation λ, emission 545 nm): Increases
RFU change (Signal deviation with increasing [Carbohydrate]) ([9]; Sodium alginate 5-0.019 mg/ml, 3 μM probe, spectral analysis, Excitation 300-500, Emission 545): Increases
Gradient Parameters (gradient of regression line) [9, 21]: 88.7 ± 62.0
Quality of Gradient [9, 21]: Horizontal
Sensitivity ([9]; to sodium alginate): No
